In PubChem BioAssay AID328 (DTP/NCI, 2004):
“And” between values parts separate entries of the source, which are not always exact repeats. Identical values can stand only once. Inconclusive results and toxic doses are left out.

Test system: BDF1 mice, P388 leukemia ip, median survival T/C
Assay: NCI In Vivo Anticancer Drug Screen. Data for tumor model P388 Leukemia (intraperitoneal) in B6D2F1 (BDF1) mice
Details: endpoint: median survival time, higher = longer survival
Outline: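 In tumour-bearing mice, survival after compound treatment is set against the vehicle group and given as a quotient.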

[1] = dose: 25.0 mg/kg/injection, schedule: Q01DX009 (ip), vehicle: saline with Tween-80
[2] = dose: 50.0 mg/kg/injection, schedule: Q01DX009 (ip), vehicle: saline with Tween-80
[3] = dose: 100.0 mg/kg/injection, schedule: Q01DX009 (ip), vehicle: saline with Tween-80
[4] = dose: 100.0 mg/kg/injection, schedule: Q04DX003 (ip), vehicle: saline with Tween-80
[5] = dose: 200.0 mg/kg/injection, schedule: Q04DX003 (ip), vehicle: saline with Tween-80
[6] = dose: 400.0 mg/kg/injection, schedule: Q04DX003 (ip), vehicle: saline with Tween-80
[7] = dose: 100.0 mg/kg/injection, schedule: Q01DX009 (ip), vehicle: saline
[8] = dose: 100.0 mg/kg/injection, schedule: Q04DX003 (ip), vehicle: saline
[9] = dose: 200.0 mg/kg/injection, schedule: Q01DX009 (ip), vehicle: saline
[10] = dose: 200.0 mg/kg/injection, schedule: Q04DX003 (ip), vehicle: saline
[11] = dose: 400.0 mg/kg/injection, schedule: Q04DX003 (ip), vehicle: saline
[12] = dose: 200.0 mg/kg/injection, schedule: Q01DX009 (ip), vehicle: saline with Tween-80
[13] = dose: 400.0 mg/kg/injection, schedule: Q01DX009 (ip), vehicle: saline with Tween-80
[14] = dose: 25.0 mg/kg/injection, schedule: Q04DX003 (ip), vehicle: saline with Tween-80
[15] = dose: 50.0 mg/kg/injection, schedule: Q04DX003 (ip), vehicle: saline with Tween-80

## Cc1nc2nc(N)[nH]c(=O)c2[nH]1
[1]
  T/C: 112 % of control
[2]
  T/C: 124 % of control
[3]
  T/C: 104 % of control
[4]
  T/C: 109 % of control

## NC(Cc1ccc(O)cc1)C(=O)OCc1ccccc1 (stereo not drawn)
[4]
  T/C: 104 % of control
[5]
  T/C: 104 % of control
[6]
  T/C: 100 % of control

## COc1cccc2c1cc([N+](=O)[O-])c1c(C(=O)O)cc3c(c12)OCO3
dose: 1.25 mg/kg/injection, schedule: Q01DX010 (ip), vehicle: water
  T/C: 100 % of control
dose: 2.5 mg/kg/injection, schedule: Q01DX010 (ip), vehicle: water
  T/C: 118 % of control
dose: 5.0 mg/kg/injection, schedule: Q01DX010 (ip), vehicle: other
  T/C: 86 % of control

## O=S(=O)(O)c1c(Cl)c(Cl)c(Cl)c(Cl)c1Cl
dose: 50.0 mg/kg/injection, schedule: Q04DX003 (ip), vehicle: suspension in saline
  T/C: 115 % of control
dose: 100.0 mg/kg/injection, schedule: Q04DX003 (ip), vehicle: suspension in saline
  T/C: 116 % of control
dose: 200.0 mg/kg/injection, schedule: Q04DX003 (ip), vehicle: suspension in saline
  T/C: 114 % of control

## C#CC(=O)C1OC2OC(C)(C)OC2C2OC(C)(C)OC12 (stereo not drawn)
dose: 3.12 mg/kg/injection, schedule: Q01DX005 (ip), vehicle: saline with Tween-80
  T/C: 100 % of control
dose: 6.25 mg/kg/injection, schedule: Q01DX005 (ip), vehicle: saline with Tween-80
  T/C: 107 % of control
dose: 12.5 mg/kg/injection, schedule: Q01DX005 (ip), vehicle: saline with Tween-80
  T/C: 107 % of control

## Cc1cccc(CSc2nc(N)nc3ncn(C4CC(O)C(CO)O4)c23)n1 (stereo not drawn)
[7]
  T/C: 103 % of control
[8]
  T/C: 100 % of control
[9]
  T/C: 97 % of control
[10]
  T/C: 104 % of control
dose: 400.0 mg/kg/injection, schedule: Q01DX009 (ip), vehicle: saline
  T/C: 103 % of control
[11]
  T/C: 100 % of control

## COC(=O)C1CN1C(c1ccccc1)(c1ccccc1)c1ccccc1 (stereo not drawn)
[12]
  T/C: 95 % of control
[13]
  T/C: 87 % of control

## Cc1nc(N)c([N+](=O)[O-])cc1[N+](=O)[O-]
dose: 100.0 mg/kg/injection, schedule: Q01DX001 (ip), vehicle: Klucel (hydroxypropylcellulose) (HPC)
  T/C: 87 % of control

## COC(=O)c1nc2c(C)nc(N(C)C)nc2[nH]c1=O
[4]
  T/C: 101 % of control
[5]
  T/C: 107 % of control
[6]
  T/C: 100 % of control

## CCCCCCC(c1c(O)cc(C)[nH]c1=O)c1c(O)cc(C)[nH]c1=O
[2]
  T/C: 96 % of control
[3]
  T/C: 96 % of control
[12]
  T/C: 90 % of control

## O=S(=O)(O)O.O=S(=O)([O-])[O-].O=[N+]([O-])O.[Co+3].[Co+3].[NH2-].[NH2-].[NH2-].[NH2-].[NH2-].[NH2-].[NH2-].[NH2-].[NH2-]
dose: 6.25 mg/kg/injection, schedule: Q01DX009 (ip), vehicle: water
  T/C: 97 % of control
dose: 12.5 mg/kg/injection, schedule: Q01DX009 (ip), vehicle: water
  T/C: 124 % of control

## O=C(NNC1CCCCC1)c1ccccc1
[1]
  T/C: 95 % of control

## FC(F)(F)C(Cl)(Cc1ccc2ccccc2n1)C(F)(F)F
dose: 100.0 mg/kg/injection, schedule: Q01DX001 (ip), vehicle: saline with Tween-80
  T/C: 100 % of control
dose: 200.0 mg/kg/injection, schedule: Q01DX001 (ip), vehicle: saline with Tween-80
  T/C: 100 % of control
dose: 400.0 mg/kg/injection, schedule: Q01DX001 (ip), vehicle: saline with Tween-80
  T/C: 104 % of control

## O=C(CSc1cc(-c2ccc(Cl)cc2)s[s+]1)c1ccccc1
[2]
  T/C: 101 % of control
[3]
  T/C: 109 % of control
[4]
  T/C: 114 % of control
[12]
  T/C: 113 % of control
[5]
  T/C: 114 % of control
[13]
  T/C: 113 % of control
[6]
  T/C: 93 % of control

## C[N+](C)(Cn1ncc2cc([N+](=O)[O-])ccc21)Cn1ncc2cc([N+](=O)[O-])ccc21
[4]
  T/C: 113 % of control
[5]
  T/C: 104 % of control

## C=C1C(O)C2(O)OCC34C(CC5C(C)=CC(=O)C(O)C5(C)C23)OC(=O)C(O)C14 (stereo not drawn)
dose: 0.06 mg/kg/injection, schedule: Q01DX009 (ip), vehicle: saline
  T/C: 95 % of control
dose: 0.25 mg/kg/injection, schedule: Q01DX009 (ip), vehicle: saline
  T/C: 106 % of control
dose: 1.0 mg/kg/injection, schedule: Q01DX009 (ip), vehicle: saline
  T/C: 98 % of control

## C[n+]1c(/C=C\C=C\N2CCCCC2)sc2ccccc21
dose: 0.16 mg/kg/injection, schedule: Q01DX009 (ip), vehicle: Klucel (hydroxypropylcellulose) (HPC)
  T/C: 114 % of control
dose: 0.31 mg/kg/injection, schedule: Q01DX009 (ip), vehicle: Klucel (hydroxypropylcellulose) (HPC)
  T/C: 108 % of control
dose: 0.63 mg/kg/injection, schedule: Q01DX009 (ip), vehicle: Klucel (hydroxypropylcellulose) (HPC)
  T/C: 119 % of control

## C1CCCC(NC2=NCCO2)CCC1
dose: 6.25 mg/kg/injection, schedule: Q04DX003 (ip), vehicle: saline with Tween-80
  T/C: 100 % of control
dose: 12.5 mg/kg/injection, schedule: Q04DX003 (ip), vehicle: saline with Tween-80
  T/C: 109 % of control
[14]
  T/C: 95 % of control

## ON=C(Cc1ccccc1)Cc1ccccc1
[4]
  T/C: 100 % of control
[5]
  T/C: 109 % of control
[6]
  T/C: 109 % of control

## COc1cccc2c1C(=O)c1c(O)c3c(c(O)c1C2=O)C[C@@](O)(/C(C)=N/NC(=O)c1ccccc1)C[C@@H]3OC1CC(N)C(O)C(C)O1 (stereo partly drawn)
dose: 0.38 mg/kg/injection, schedule: Q01DX009 (ip), vehicle: water
  T/C: 166 % of control
dose: 0.75 mg/kg/injection, schedule: Q01DX009 (ip), vehicle: water
  T/C: 166 % of control
dose: 1.5 mg/kg/injection, schedule: Q01DX009 (ip), vehicle: saline
  T/C: 216 % of control
dose: 1.5 mg/kg/injection, schedule: Q01DX009 (ip), vehicle: water
  T/C: 123 % of control and 217 % of control
dose: 3.0 mg/kg/injection, schedule: Q01DX009 (ip), vehicle: saline
  T/C: 250 % of control
dose: 3.0 mg/kg/injection, schedule: Q01DX009 (ip), vehicle: water
  T/C: 245 % of control and 110 % of control
dose: 3.0 mg/kg/injection, schedule: Q04DX003 (ip), vehicle: saline
  T/C: 226 % of control
dose: 6.0 mg/kg/injection, schedule: Q01DX009 (ip), vehicle: saline
  T/C: 166 % of control
dose: 6.0 mg/kg/injection, schedule: Q01DX009 (ip), vehicle: water
  T/C: 164 % of control
dose: 6.0 mg/kg/injection, schedule: Q04DX003 (ip), vehicle: saline
  T/C: 208 % of control
dose: 6.5 mg/kg/injection, schedule: Q04DX003 (ip), vehicle: water
  T/C: 171 % of control
dose: 10.8 mg/kg/injection, schedule: Q04DX003 (ip), vehicle: water
  T/C: 165 % of control
dose: 12.0 mg/kg/injection, schedule: Q01DX009 (ip), vehicle: saline
  T/C: 95 % of control
dose: 12.0 mg/kg/injection, schedule: Q04DX003 (ip), vehicle: saline
  T/C: 195 % of control
dose: 18.0 mg/kg/injection, schedule: Q04DX003 (ip), vehicle: water
  T/C: 103 % of control

## O=C1c2ccccc2C(=O)N1C1CCC(O)CC1 (stereo not drawn)
[1]
  T/C: 109 % of control
[14]
  T/C: 104 % of control
[2]
  T/C: 86 % of control
[15]
  T/C: 109 % of control
[3]
  T/C: 90 % of control
[4]
  T/C: 104 % of control

## O=c1[n-]cc(F)c(=O)[nH]1.O=c1[n-]cc(F)c(=O)[nH]1.[NH2-].[NH2-].[Pt+4]
[7]
  T/C: 100 % of control
[8]
  T/C: 120 % of control and 104 % of control
[9]
  T/C: 120 % of control
[10]
  T/C: 113 % of control
[11]
  T/C: 100 % of control

## Cc1cc2c(cc1C)C(=O)C(N1CCN(C)CC1)CCC2 (stereo not drawn)
[14]
  T/C: 100 % of control
[15]
  T/C: 104 % of control
[4]
  T/C: 86 % of control

## CC[N+](CC)(CC)CCCCCC[N+](CC)(CC)CC
dose: 1.0 mg/kg/injection, schedule: Q01DX009 (ip), vehicle: water
  T/C: 100 % of control
dose: 2.0 mg/kg/injection, schedule: Q01DX009 (ip), vehicle: water
  T/C: 104 % of control
dose: 2.0 mg/kg/injection, schedule: Q04DX003 (ip), vehicle: water
  T/C: 102 % of control and 103 % of control
dose: 4.0 mg/kg/injection, schedule: Q01DX009 (ip), vehicle: water
  T/C: 97 % of control
dose: 4.0 mg/kg/injection, schedule: Q04DX003 (ip), vehicle: water
  T/C: 116 % of control
dose: 6.0 mg/kg/injection, schedule: Q04DX003 (ip), vehicle: water
  T/C: 102 % of control
dose: 6.25 mg/kg/injection, schedule: Q04DX003 (ip), vehicle: water
  T/C: 123 % of control
dose: 8.0 mg/kg/injection, schedule: Q01DX009 (ip), vehicle: water
  T/C: 104 % of control
dose: 8.0 mg/kg/injection, schedule: Q04DX003 (ip), vehicle: water
  T/C: 100 % of control

## O=C1C(=C(C(F)(F)F)C(F)(F)F)CCc2ccc([N+](=O)[O-])cc21
[4]
  T/C: 110 % of control
[6]
  T/C: 110 % of control
